2 substances from publication PMC10115881, “Disrupting the α-synuclein-ESCRT interaction with a peptide inhibitor mitigates neurodegeneration in preclinical models of Parkinson’s disease” (Nature Communications, 2023) can be followed below.

For assay [1], the system named is WT a-syn-mediated cytotoxicity in HEK293 cells. The experiment in a line: Pooled lentiviral 7-mer peptide cytotoxicity screen, WT a-syn + MG132.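 On Slope Norm Reads: reads normalized to total peptide reads per sample with scalar factor.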 Type of assay: cell-based, human. An excerpt:
We used a lentiviral library of 50,549 7-mer peptides enriched in PPI motifs[13] on a green fluorescent protein (GFP) scaffold (Fig. 1A). We infected cells in a pooled format and the amino acid sequence of each peptide served as its own barcode. By using a low multiplicity of infection followed by puromycin selection, each infected cell expressed one unique GFP-peptide. We screened for peptides that reduced a-syn-mediated cytotoxicity or a-syn oligomers in parallel (Fig. 1A). To cause cytotoxicity relevant to PD, we induced proteostatic stress in HEK293 cells by inhibiting the proteasome with MG132 and overexpressing human WT a-syn associated with idiopathic PD in one screen or the more toxic mutant A53T a-syn associated with familial PD in a second screen. This combination of a-syn overexpression and pharmacological proteasome inhibition led to death of most cells, with only those that expressed a protective peptide surviving. By extracting genomic DNA from the surviving cells and amplifying the peptide coding sequences, we identified the protective peptides (Fig. 1A). To detect a-syn oligomers, we used a protein fragment complementation assay (PCA) of a-syn oligomerization in HEK293 cells. In this assay, human A53T a-syn was fused to either the C- or N-terminal half of yellow fluorescent protein (YFP). No fluorescence is detectable while a-syn exists in monomers but, when a-syn oligomerizes, the two halves of YFP come in close enough proximity to form a functional, spontaneously fluorescent protein. […] Our screens yielded 10 hits (Table S1). The hit with the most reads (i.e., the most abundant) was the same peptide in all screens: IPIQLKA (named PDpep1) (Table S1). We validated the cytoprotective effects of PDpep1 in HEK293 cells overexpressing WT or A53T a-syn (Figs. 1B, S1A), as well as its ability to reduce WT or A53T a-syn oligomers in a luciferase-based PCA[18]–[20] compared to a scrambled control peptide (Figs. 1C, S1B).
HEK293T cells (ATCC, CRL-3216) were maintained in DMEM supplemented with 10% FBS and 1% pen/strep/glutamine, and the appropriate selection antibiotics when required. Lentiviruses were made in a 15 cm dish format by transfecting packaging cells (HEK293T) with a three-plasmid system (expression vector, psPAX2 and pMD2.G) and using Polyjet DNA transfection reagent (FroggaBio, SL100688.1). Viral transduction of HEK293T cells were performed with a multiplicity of infection (MOI) of 0.3. Infected cells were selected in puromycin-containing medium to eliminate uninfected cells and three aliquots of cells were collected for sampling of the initial (T0) cell population. Cells were treated with MG132 at concentrations of 0, 10, 25, or 50 µM. For the cell viability screen, surviving cells were collected and gDNA was extracted for identification of peptide inhibitors of cell toxicity. For the inhibition of a-syn aggregation screen, a protein fragment complementation assay (PCA) was used by transfecting cells with split YFP-a-syn constructs following stable expression of the peptides. Cells were sorted based on their YFP fluorescence intensities with a FACSVantage SE cell sorter (BD Bioscience) and gDNA was extracted for identification of peptides.
Genomic DNA (gDNA) from peptide expressing cells at different time-points was extracted using QIAamp DNA Blood Mini Kit. PCR amplifications of peptides from gDNA in parallel with the lentiviral plasmid library (naïve library) were performed using indexed Illumina PCR primers to incorporate both the Illumina adapter sequences and indexing sequences. Each 50 μl reaction contained 3.2 μg of template, 2× PCR buffer, 2× enhancer solution, 300 μM each dNTP, 900 nM each of Adapter A (5′-[…]-[…]-3′) and Adapter B (5′-[…]-[…]-3′), 1 mM MgSO4, 3.75 units of Platinum Pfx polymerase, and water to 50 μl. […]

The subject of assay [2] is a-syn oligomers in iPSC-derived dopaminergic neurons. The experiment in a line: a-syn oligomer (Syn-O2) fluorescence in iPSC-derived dopaminergic neurons. The note with it: A53T a-syn iPSC-derived dopaminergic neurons. The class given is cell-based, human. An excerpt:
Further, we used an antibody that has a high binding affinity for oligomeric a-syn and recognizes early soluble oligomers and late fibrils of a-syn (Syn-O2)[54]. This antibody detects these a-syn conformations in cerebrospinal fluid[55] and brain tissue[54] from PD patients. Levels of these a-syn conformations were increased in A53T a-syn neurons (Fig. 6G, H). Further, LAMP1 levels were reduced in A53T a-syn neurons (Fig. 6D, F).
A53T a-syn iCell Dopa neurons (catalog #R1109) and isogenic control iCell Dopa neurons (catalog #R1088) were purchased from Fujifilm Cellular Dynamics (Madison, WI, USA) and cultured as per the manufacturer’s instructions. […]
Confocal images of immunofluorescent staining were acquired with a Zeiss LSM880 confocal microscope equipped with 405, 488, 555, and 639 nm laser lines. All images were taken within the linear range at constant gain and pinhole settings at optimal resolution settings determined by the software. […]
Confocal images of primary cortical neurons, iPSC-derived dopaminergic neurons, and LAMP1 staining within the SN were processed using Imaris software (Oxford instruments). […] Mean pixel intensity per GFP^+ cell (for experiments using GFP-tagged peptides) or RFP^+ cell (for experiments using RFP-tagged peptides) was calculated for a-syn or LAMP1 signal using the software’s surfaces module. […]

Take “IPIQLKA [PDpep1, initial screen hit peptide IPIQLKA]”: in assay [1], the “Reads 10M MG132” value was found to be 1, the “Reads 25M MG132” value turned out to be 1629, the “Reads 50M MG132” value is recorded as 3375 and the “Slope Norm Reads” value was determined as 3.45. Also, the “Reads 0M MG132” value in assay [1] (Illumina reads, average Phred >30) came to 90.

Take DEEIERQLKALG [PDpep1.3]: the “Effect on oligomeric a-syn, iPSC neurons” value in assay [2] is “returned levels of a-syn, including oligomeric a-syn, as well as LAMP1 levels to those of isogenic controls”.
